Source: US20070128217A1 (priority 2003, published 2007)

Legend:
[1] = system: rabbit serum obtained by immunizing a rabbit with the SARS-CoV strain Frankfurt 1; format: binding; design: Binding of a rabbit serum to linear peptides / Binding of a rabbit serum to looped peptides / Rabbit serum linear peptides / Rabbit serum looped peptides / Binding of a rabbit serum to linear peptides of protein N of SARS-CoV Urbani (Rabbit serum linear peptides) / Binding of a rabbit serum to looped/cyclic peptides of protein N of SARS-CoV Urbani (Rabbit serum looped peptides): unit not given here
[2] = system: antibodies in sera from SARS patients (sera 1a, 1b, 2, 6, 37, 62, London, SARS-yellow, SARS-green); format: binding, human; design: Binding of serum 6 to linear peptides of protein X1 of SARS-CoV Urbani / Binding of serum 37 to linear peptides of protein X1 of SARS-CoV Urbani / Binding of serum 6 to looped/cyclic peptide (PEPSCAN-ELISA) / Binding of serum 37 to looped/cyclic peptide (PEPSCAN-ELISA) / Binding of serum 37 to looped/cyclic peptides of protein X1 of SARS-CoV Urbani / Binding of serum 6 to linear peptides of protein X2 / Binding of serum 37 to linear peptides of protein X2 / Binding of serum 37 to looped/cyclic peptides of protein X2 of SARS-CoV Urbani / Binding of serum 6 to linear peptides of protein M of SARS-CoV Urbani / Binding of serum 37 to linear peptides of protein M of SARS-CoV Urbani / Binding of serum 6 to looped/cyclic peptides of protein M of SARS-CoV Urbani / Binding of serum 37 to looped/cyclic peptides of protein M of SARS-CoV Urbani / Binding of serum 6 to linear peptides of protein X3 of SARS-CoV Urbani / Binding of serum 37 to linear peptides of protein X3 of SARS-CoV Urbani / Binding of serum 37 to looped/cyclic peptides of protein X3 of SARS-CoV Urbani / Binding of serum 6 to linear peptides of protein X4 of SARS-CoV Urbani / Binding of serum 37 to linear peptides of protein X4 of SARS-CoV Urbani / Binding of serum 37 to looped/cyclic peptides of protein X4 of SARS-CoV Urbani / Binding of serum 6 to linear peptides of protein X5 of SARS-CoV Urbani / Binding of serum 37 to linear peptides of protein X5 of SARS-CoV Urbani / Binding of serum 37 to looped/cyclic peptides of protein X5 of SARS-CoV Urbani / Binding of serum 6 to linear peptides of protein N of SARS-CoV Urbani / Binding of serum 37 to linear peptides of protein N of SARS-CoV Urbani / Binding of serum 6 to linear peptide (PEPSCAN-ELISA) / Binding of serum 1a to looped/cyclic peptides of protein N of SARS-CoV Urbani / Binding of serum 1b to looped/cyclic peptides of protein N of SARS-CoV Urbani / Binding of serum 2 to looped/cyclic peptides of protein N of SARS-CoV Urbani / Binding of serum 6 to looped/cyclic peptides of protein N of SARS-CoV Urbani / Binding of serum 37 to looped/cyclic peptides of protein N of SARS-CoV Urbani / Binding of serum 62 to looped/cyclic peptides of protein N of SARS-CoV Urbani / Binding of serum London to looped/cyclic peptides of protein N of SARS-CoV Urbani / Binding of serum SARS-green to looped/cyclic peptides of protein N of SARS-CoV Urbani: unit not given here
[3] = system: control sera (pooled serum of ten healthy LUMC hospital workers; commercial negative donor pooled serum from the Dutch bloodbank); format: binding, human; design: Binding of Control serum LUMC to linear peptides / Binding of Control serum Blood-bank to linear peptides / Binding of Control serum LUMC to looped peptides / Binding of Control Serum Blood-Bank to Looped peptides / Binding of Control serum LUMC to linear peptides of the protein M of SARS-CoV Urbani / Binding of Control serum Blood-bank to linear peptides of the protein M of SARS-CoV Urbani / Binding of Control serum LUMC to looped peptides of the protein M of SARS-CoV Urbani / Binding of Control Serum Blood-Bank to Looped peptides of the protein M of SARS-CoV Urbani: unit not given here
[4] = system: recombinant human anti-SARS-CoV antibody 03-018; format: binding; design: Binding of antibody 03-018 to linear peptides of the N protein of SARS-CoV Urbani / Binding of antibody 03-018 to looped/cyclic peptides of the N protein of SARS-CoV Urbani: unit not given here

Row | Sequence | Binding of a rabbit serum to linear peptides of protein N of SARS-CoV Urbani (Rabbit serum linear peptides) [1] | Binding of a rabbit serum to looped/cyclic peptides of protein N of SARS-CoV Urbani (Rabbit serum looped peptides) [1] | Binding of serum 1a to linear peptide (PEPSCAN-ELISA) [2] | Binding of serum 1a to looped/cyclic peptides of protein N of SARS-CoV Urbani [2] | Binding of serum 1b to linear peptide (PEPSCAN-ELISA) [2] | Binding of serum 1b to looped/cyclic peptides of protein N of SARS-CoV Urbani [2] | Binding of serum 2 to linear peptide (PEPSCAN-ELISA) [2] | Binding of serum 2 to looped/cyclic peptides of protein N of SARS-CoV Urbani [2] | Binding of serum 6 to looped/cyclic peptides of protein N of SARS-CoV Urbani [2] | Binding of serum 37 to looped/cyclic peptides of protein N of SARS-CoV Urbani [2] | Binding of serum 62 to looped/cyclic peptides of protein N of SARS-CoV Urbani [2] | Binding of serum London to looped/cyclic peptides of protein N of SARS-CoV Urbani [2] | Binding of serum SARS-green to looped/cyclic peptides of protein N of SARS-CoV Urbani [2] | Binding of serum SARS-yellow to looped/cyclic peptides of protein N of SARS-CoV Urbani [2] | Binding of Control Serum Blood-Bank to Looped peptides [3] | Binding of Control serum Blood-bank to linear peptides [3] | Binding of Control serum LUMC to linear peptides [3] | Binding of Control serum LUMC to looped peptides [3] | Binding of antibody 03-018 to linear peptides of the N protein of SARS-CoV Urbani [4] | Binding of antibody 03-018 to looped/cyclic peptides of the N protein of SARS-CoV Urbani [4] | also measured
1 | SSRSRGNSRNSTPGS | 0.1 | 0.0 | 0.8 | 0.3 | 0.5 | 0.1 | 0.1 | 0.3 | 0.1 | 0.4 | 0.3 | 0.3 | 0.0 | 0.1 | 0.5 | 0.6 | 0.5 | 0.5 | 0.1 | 0.2 | Binding of serum 6 to linear peptide (PEPSCAN-ELISA) [2]: 0.2; Binding of serum 37 to linear peptide (PEPSCAN-ELISA) [2]: 0.6; Binding of serum 62 to linear peptide (PEPSCAN-ELISA) [2]: 0.5; Binding of serum London to linear peptide (PEPSCAN-ELISA) [2]: 0.4; Binding of serum SARS-green to linear peptide (PEPSCAN-ELISA) [2]: 0.1; Binding of serum SARS-yellow to linear peptide (PEPSCAN-ELISA) [2]: 0.5
2 | FGGPTDSTDNNQNGG | 0.0 | 0.1 | – | 0.2 | – | 0.1 | – | 0.2 | 0.1 | 0.4 | 0.2 | 0.2 | 0.3 | 0.1 | 0.4 | 0.6 | 0.5 | 0.4 | 0.1 | 0.2 | Binding of serum 1a to linear peptides of protein N of SARS-CoV Urbani [2]: 0.3; Binding of serum 1b to linear peptides of protein N of SARS-CoV Urbani [2]: 0.1; Binding of serum 2 to linear peptides of protein N of SARS-CoV Urbani [2]: 0.1; Binding of serum 6 to linear peptides of protein N of SARS-CoV Urbani [2]: 0.1; Binding of serum 37 to linear peptides of protein N of SARS-CoV Urbani [2]: 0.6; Binding of serum 62 to linear peptides of protein N of SARS-CoV Urbani [2]: 0.5; Binding of serum London to linear peptides of protein N of SARS-CoV Urbani [2]: 0.5; Binding of serum SARS-green to linear peptides of protein N of SARS-CoV Urbani [2]: 0.0; Binding of serum SARS-yellow to linear peptides of protein N of SARS-CoV Urbani [2]: 0.5
3 | DHIGTRNPNNNAATV | 0.1 | 0.5 | – | 0.5 | – | 0.4 | – | 0.8 | 0.5 | 1.1 | 0.8 | 0.7 | 0.5 | 0.6 | 0.9 | 0.8 | 0.7 | 1.0 | 0.1 | 0.3 | Binding of serum 1a to linear peptides of protein N of SARS-CoV Urbani [2]: 0.3; Binding of serum 1b to linear peptides of protein N of SARS-CoV Urbani [2]: 0.1; Binding of serum 2 to linear peptides of protein N of SARS-CoV Urbani [2]: 0.3; Binding of serum 6 to linear peptides of protein N of SARS-CoV Urbani [2]: 0.2; Binding of serum 37 to linear peptides of protein N of SARS-CoV Urbani [2]: 0.7; Binding of serum 62 to linear peptides of protein N of SARS-CoV Urbani [2]: 0.7; Binding of serum London to linear peptides of protein N of SARS-CoV Urbani [2]: 0.5; Binding of serum SARS-green to linear peptides of protein N of SARS-CoV Urbani [2]: 0.5; Binding of serum SARS-yellow to linear peptides of protein N of SARS-CoV Urbani [2]: 0.7
4 | DQDLIRQGTDYKHWP | 0.1 | 0.1 | 0.3 | 0.2 | 0.1 | 0.1 | 0.2 | 0.3 | 0.1 | 0.4 | 0.3 | 0.3 | 0.1 | 0.1 | 0.4 | 0.8 | 0.7 | 0.4 | 0.1 | 0.2 | Binding of serum 6 to linear peptide (PEPSCAN-ELISA) [2]: 0.2; Binding of serum 37 to linear peptide (PEPSCAN-ELISA) [2]: 0.7; Binding of serum 62 to linear peptide (PEPSCAN-ELISA) [2]: 0.6; Binding of serum London to linear peptide (PEPSCAN-ELISA) [2]: 0.8; Binding of serum SARS-green to linear peptide (PEPSCAN-ELISA) [2]: 0.5; Binding of serum SARS-yellow to linear peptide (PEPSCAN-ELISA) [2]: 0.7
